{"source": "patent US20090220432A1", "about": "“Imaging agents and methods of using same for detecting multidrug resistance in cancer” (The Johns Hopkins University, priority 2005, published 2009)", "key": {"MCF-7^adr cells [1]": {"test_system": "MCF-7^adr cells", "test": "Flow cytometry (FACS) of contrast agent uptake", "format": "cell-based, Human", "method": "FIG. 4 is a graph showing fluorescence detection of Tat-GdDOTA-TAMRA taken up by MCF-7^wt and MCF-7^adr cells after exposure to 0.5 mg/ml of same for 20 min. Dotted lines represent controls (line “a”: MCF-7^wt; line “b”: MCF-7^adr). Solid lines represent the cells treated with Tat-GdDOTA-TAMRA (line “c”: MCF-7^wt; line “d”: MCF-7^adr). […] A FACSCalibur (Becton Dickinson Biosciences, San Jose, Calif., U.S.A.) was used for flow cytometry. Acquisition and analysis were performed with Cell Quest software (Becton Dickinson Biosciences, San Jose, Calif., U.S.A.).\n(§1) In addition to the above experiments, collected cell pellets were incubated with 250 μl of Tat-GdDOTA-TAMRA (0.5 mg/ml in EMEM) for 20 min at 37° C. in the 5% CO2 incubator. After consecutive washing with PBS, cells were fixed in 3% paraformaldehyde for 15 min. As a control, cells were incubated with EMEM alone. To inhibit multidrug resistance mechanisms, 100 μM of DMCD was added to cells for 20 min prior to exposure to Tat-GdDOTA-TAMRA. In each step, cells were washed thoroughly. TAMRA fluorescence was detected in the orange-red region using band-selective emission filters centered around 600 nm."}, "MCF-7^adr cells [2]": {"test_system": "MCF-7^adr cells", "test": "Fluorescent microscopy of contrast agent uptake", "format": "cell-based, Human", "method": "(§2) Cells were treated with 100 μg/ml DMCD prior to the exposure to Tat-GdDOTA-TAMRA. An Eclipse E400 microscope with a C-SHG1 super high pressure mercury lamp and a Coolpix 5000 digital camera (Nikon Inc., Tokyo, Japan) was used for fluorescent microscopy. Exposure time= 1/15 s, magnification=×40.\nas §1"}, "wild type KB tumor": {"test_system": "wild type KB tumor", "conditions": "cited from earlier work"}, "[3]": {"test": "MRI relaxation times of water sample doped with GdDTPA", "format": "physicochemical", "conditions": "water sample doped with GdDTPA (0.05 M)"}, "MCF-7^adr cells [4]": {"test_system": "MCF-7^adr cells", "test": "Flow cytometry of rhodamine 123 uptake (double staining with anti-P-gp)", "format": "cell-based, Human", "conditions": "30 min incubation", "from_the_text": "(§3) Materials. An HIV-1 Tat basic domain peptide-GdDOTA-carboxytetramethylrhodamine conjugates (Tat-GdDOTA-TAMRA, MW=2,989; as shown in FIG. 1) was custom-synthesized by Global Peptide Services, LLC (Fort Collins, Colo., U.S.A.). The specific T1 relaxivity (R,) of the agent at 9.4T is 4.9 (sec·mM)^−1. Monoclonal anti-P-gp [P-7965], streptavidin-QR conjugates [S-2899], and rhodamine 123 [R-8004] were purchased from Sigma Chemical Company (St. Louis, Mo., U.S.A.). Heptakis-(2,6-di-O-methyl)-β-cyclodextrin (DMCD) and cyclosporin A were purchased from Sigma-Aldrich Co. (St. Louis, Mo., U.S.A.). 4′,6-diamidino-2-phenylindole (DAPI) was obtained from Invitrogen Corp. (Carlsbad, Calif., U.S.A.). All other chemicals were obtained as reagent-grade products. Cell lines. Human breast adenocarcinoma (MCF-7^wt) and its multi-drug-resistant variant (MCF-7^adr) were maintained in Eagle's minimum essential medium (EMEM) with 1% penicillin, streptomycin, and 10% fetal bovine serum at 37° C. with 5% CO2. For MCF-7^adr cells, the growth medium was supplemented with 1.5 μM of adriamycin every medium change. Flow cytometry and fluorescent microscopy. Initially, to check P-gp expression and P-gp function of both cell lines, flow cytometry was implemented using a double staining technique as follows. […]"}, "MCF-7^wt cells [5]": {"test_system": "MCF-7^wt cells", "test": "Flow cytometry of rhodamine 123 uptake (double staining with anti-P-gp)", "format": "cell-based, Human", "conditions": "30 min incubation", "from_the_text": "as §3"}, "[6]": {"test": "T1 relaxivity of the agent at 9.4T", "format": "physicochemical", "from_the_text": "as §3"}, "MCF-7^wt cells [7]": {"test_system": "MCF-7^wt cells", "test": "Fluorescent microscopy of contrast agent uptake", "format": "cell-based, Human", "conditions": "0.5 mg/ml for 20 min", "method": "as §2, §1"}, "MCF-7^adr cells [8]": {"test_system": "MCF-7^adr cells", "test": "In vitro MRI T1 measurement of labeled cells", "format": "cell-based, Human", "method": "as §1\n(§4) Confocal microscopy. MCF-7^wt and MCF-7^adr cell lines were separately seeded in each 4-chamber glass slide (Nalge Nunc International Corp., Naperville, Ill., U.S.A.). Cells were incubated with 250 μl of Tat-GdDOTA-TAMRA (10 μg/ml) for 30 min in the 5% CO2 incubator. Cell nuclei were stained with DAPI ([…]) for 5 min. Cells were fixed with 3% paraformaldehyde for 15 min, and mounted under a coverslip following removal of plastic chambers. Confocal studies were performed with an inverted Zeiss LSM 410 confocal microscope (Carl Zeiss AG, Jena, Germany) using a 40× water immersion lens. In vitro MRI study. For the in vitro MRI study, the cell labeling procedure followed the protocol used for flow cytometry and microscopy studies, except that 20 µM of cyclosporin A was used, rather than DMCD as a multidrug resistance inhibitor. Cell suspensions were transferred into micro-centrifuge PCR tubes. MRI was carried out on a Bruker horizontal bore 9.4T spectrometer (Bruker Biospin GmbH, Rheinstetten, Germany) equipped with shielded gradients. The Paravision 3.0.2 program (Bruker Biospin GmbH) was used as acquisition software. […] Quantitative T1, maps of the samples were reconstructed using custom-written software in the IDL programming environment Research Systems Inc., Boulder, Colo., U.S.A.) that runs on Linux workstations. Final analysis was performed with the Image) program. (NIH, Bethesda, Md., U.S.A.)."}, "MCF-7^wt cells [9]": {"test_system": "MCF-7^wt cells", "test": "In vitro MRI T1 measurement of labeled cells", "format": "cell-based, Human", "method": "as §1, §4"}, "MCF-7^adr cells [10]": {"test_system": "MCF-7^adr cells", "test": "Confocal microscopy of contrast agent with DAPI nuclei staining", "format": "cell-based, Human", "conditions": "MDR cells, 10 μg/ml for 30 min", "method": "(§5) Confocal microscopy. MCF-7^wt and MCF-7^adr cell lines were separately seeded in each 4-chamber glass slide (Nalge Nunc International Corp., Naperville, Ill., U.S.A.). Cells were incubated with 250 μl of Tat-GdDOTA-TAMRA (10 μg/ml) for 30 min in the 5% CO2 incubator. Cell nuclei were stained with DAPI ([…]) for 5 min. Cells were fixed with 3% paraformaldehyde for 15 min, and mounted under a coverslip following removal of plastic chambers. Confocal studies were performed with an inverted Zeiss LSM 410 confocal microscope (Carl Zeiss AG, Jena, Germany) using a 40× water immersion lens. In vitro MRI study. […] A saturation recovery snapshot-FLASH pulse sequence with an excitation pulse flip angle of 10 degrees, an echo time of 1.245 ms, and ten T1, saturation recovery delays (50, 100, 250, 500, 1,000, 1,500, 2,000, 3,000, 5,000, 12,000 ms) were used (Bhujwalla, Z. M., Artemov, D., Natarajan, K., Ackerstaff, E. & Solaiyappan, M., “Vasuclar Differences Detected by MRI for Metastatic Versus Nonmetastatic Breast and Prostate Cancer Xenografts”, Neoplasia 3, 143-153 (2002)). Quantitative T1, maps of the samples were reconstructed using custom-written software in the IDL programming environment Research Systems Inc., Boulder, Colo., U.S.A.) that runs on Linux workstations. […]"}, "MCF-7^wt cells [11]": {"test_system": "MCF-7^wt cells", "test": "Confocal microscopy of contrast agent with DAPI nuclei staining", "format": "cell-based, Human", "conditions": "wild type cells, 10 μg/ml for 30 min", "method": "as §5"}, "[12]": {"conditions": "MCF-7^adr, 0.5 mg/ml for 20 min"}}, "note": "Entries after “also recorded” stand apart in the source; their conditions may differ.", "data": [{"compound": "COC[C@H]1O[C@@H]2O[C@H]3[C@H](O)[C@@H](OC)[C@@H](O[C@H]4[C@H](O)[C@@H](OC)[C@@H](O[C@H]5[C@H](O)[C@@H](OC)[C@@H](O[C@H]6[C@H](O)[C@@H](OC)[C@@H](O[C@H]7[C@H](O)[C@@H](OC)[C@@H](O[C@H]8[C@H](O)[C@@H](OC)[C@@H](O[C@H]1[C@H](O)[C@H]2OC)O[C@@H]8COC)O[C@@H]7COC)O[C@@H]6COC)O[C@@H]5COC)O[C@@H]4COC)O[C@@H]3COC", "note": "[DMCD, Heptakis-(2,6-di-O-methyl)-β-cyclodextrin, reference compound]", "values": [{"measurement": "uptake of Tat-GdDOTA-TAMRA after MDR inhibitor pre-treatment (FACS)", "setting": "MCF-7^adr cells [1]; MCF-7^adr pre-treated with inhibitor", "value": "recovered almost to the level typical for wild type cells"}, {"measurement": "retention of Tat-GdDOTA-TAMRA conjugates after MDR inhibitor pre-treatment (microscopy)", "setting": "MCF-7^adr cells [2]; MCF-7^adr pre-treated with inhibitor for 20 min", "value": "high retention"}]}, {"compound": "[C-]#[N+]CC(C)(C)OC.[C-]#[N+]CC(C)(C)OC.[C-]#[N+]CC(C)(C)OC.[C-]#[N+]CC(C)(C)OC.[C-]#[N+]CC(C)(C)OC.[C-]#[N+]CC(C)(C)OC.[Tc]", "note": "[[^99mTc]SESTAMIBI]", "values": [{"measurement": "retention in tumor", "setting": "wild type KB tumor", "value": "retained"}]}, {"compound": "O=C([O-])CN(CCN(CC(=O)[O-])CC(=O)O)CCN(CC(=O)[O-])CC(=O)O.[Gd+3]", "note": "[GdDTPA]", "values": [{"measurement": "T1 relaxation time", "setting": "[3]", "value": "~25", "unit": "ms"}, {"measurement": "T2 relaxation time", "setting": "[3]", "value": "~25", "unit": "ms"}]}, {"compound": "rhodamine 123", "values": [{"measurement": "accumulation of rhodamine 123", "setting": "MCF-7^adr cells [4]", "value": "reduced accumulation"}, {"measurement": "accumulation of rhodamine 123", "setting": "MCF-7^wt cells [5]", "value": "efficient accumulation"}]}, {"compound": "HIV-1 Tat basic domain peptide-GdDOTA-carboxytetramethylrhodamine conjugates [Tat-GdDOTA-TAMRA]", "values": [{"measurement": "agent delivered into cells by FACS, in comparison to MCF-7^wt", "setting": "MCF-7^adr cells [1]; [12]", "value": "significantly lower"}, {"measurement": "specific T1 relaxivity", "setting": "[6]", "value": 4.9, "unit": "s/mM"}, {"measurement": "fluorescence detected by microscopy", "setting": "MCF-7^adr cells [2]; [12]", "value": "Lower or no fluorescence"}, {"measurement": "uptake by fluorescence microscopy", "setting": "MCF-7^wt cells [7]", "value": "Efficient uptake"}, {"measurement": "T1", "setting": "MCF-7^adr cells [8]; MCF-7^adr cells, 0.5 mg/ml agent for 20 min, 9.4T MRI, averaged T1", "value": "2.05 ± 0.06", "unit": "s"}, {"measurement": "T1 reduction (ΔT1)", "setting": "MCF-7^adr cells [8]; MCF-7^adr, treated vs control (Table 1 columns 6 and 7)", "value": "0.3 ± 0.11", "unit": "s"}, {"measurement": "effect on T1 relaxation time", "setting": "MCF-7^adr cells [8]; MDR cells treated with the conjugates alone", "value": "almost no decrease"}, {"measurement": "T1", "setting": "MCF-7^wt cells [9]; MCF-7^wt cells, 0.5 mg/ml agent for 20 min, 9.4T MRI, averaged T1", "value": "1.79 ± 0.02", "unit": "s"}, {"measurement": "T1 reduction (ΔT1)", "setting": "MCF-7^wt cells [9]; MCF-7^wt, treated vs control (Table 1 columns 2 and 3)", "value": "0.54 ± 0.11", "unit": "s"}, {"measurement": "effect on T1 relaxation time", "setting": "MCF-7^wt cells [9]; wild type cells, 0.5 mg/ml", "value": "significantly decreased; also recorded: significantly reduced"}, {"measurement": "intracellular localization (confocal)", "setting": "MCF-7^adr cells [10]", "value": "significantly less compound and less co-localization with nuclei"}, {"measurement": "intracellular localization (confocal)", "setting": "MCF-7^wt cells [11]", "value": "co-localized with nuclei"}]}]}
